# Assay results: patent US5441983A, “Treatment of infection by enveloped virus with calix(N)arene compounds” (Genelabs Incorporated, priority 1992, dated 1995)
# Legend:
# [1] = test system: HSV-1 or HSV-2; experiment: Inhibition of HSV cytopathic effect (CPE) in Vero cells; details: 10-20 μg/ml
# Method: In the method reported in Example 5, Vero cells were infected with HSV-1 or HSV-2 and allowed to grow in culture until cytopathic effects were clearly visible. In the absence of infection, the cells form an even monolayer of fibro-blastlike cells. With HSV infection, a cytopathic effect characterized by round cells in suspension is clearly evident after 24 hours, followed by clumping and lysis of infected cells after 24-72 hours.
# In the drug inhibition study reported in Example 5, cells were exposed to HSV-1 or HSV-2 virus and, at the same time, to a selected aryl macrocyclic compound, at a final drug concentration of 10 μg/ml. Twenty-four hours later the cells were examined for cytopathic effect.
# Vero cells were maintained in RPMI-1640 medium supplemented with 5% fetal calf serum, 100 Units of penicillin per ml and 100 μg of streptomycin per ml at 37° C. in a humidified incubator containing 7% CO2. The HSV strains HSV-1 (Kos-1) and HSV-2 (333) were used.
# 1×10^5 Vero cells were plated in each well of a 96 well microtitre plate in 0.2 ml RPMI-1640 medium containing 5% FCS and 0.1% methyl cellulose (15 cps). After overnight incubation, and cell doubling, the medium was aspirated and replaced with 100 .1 of the same medium containing 2% FCS, and 50.1 control or drug solution to a final drug concentration of 10 μg/ml and 50 μl virus, containing about 3 PFU/cell, i.e., 6 x 10^s PFU/well, of HSV-1 or HSV-2.
# The cells were cultured for 24 hours at 37° C. at which time cytopathic effects are clearly visible. In the absence of viral infection, the cells form an even monolayer of fibroblast cells. With viral infection, the cells form a suspension of round cells, followed by cell clumping, whose appearance is easily distinguishable from normal fibroblast cells. If no detectable cytopathic effect was produced, the test was repeated with 10 μg/ml. A parallel set of cells without virus inoculation were done as a control for cytotoxicity to Vero cells.
# [2] = test system: HIV-HXB; experiment: Inhibition of syncytia formation, HIV-HXB (HTLV-IIIB); details: Human immunodeficiency virus 1, 18 h, read-out: HIV-HXB ED100, complete inhibition of syncytia formation
# Method: (§13) Briefly, cells chronically infected with HTLV-IIIB or RF-II HIV strains were incubated in the presence of serial dilutions of the selected KY compound, then further cocultured with indicator cells. The extent of syncytia formation was scored under phase microscopy.
# (§14) Representative calix(n)arene compounds from Table 2 were tested for inhibition of cytopathic effects in cells infected with one of two HTLV-III strains, HTLV-IIIB and RF-II strains, as described in Example 12, and in the subsection above.
# (§15) Human CD4^+ indicator cells (VB) and chronically infected H9 cells were maintained in RPMI-1640 medium supplemented with 5% fetal calf serum, 100 Units of penicillin per ml and 100 μg of streptomycin per ml at 37° C. in a humidified incubator containing 7% CO2.
# (§16) For the fusion assay, serial dilutions between 1:2 and 1:2^8 of a selected KY compound, 1 mg/ml in PBS were made in a 96 well round bottom plate. The diluted KY compound was transferred to a 96 well flat-bottom plate. To each well was added 25 μg chronically infected H9 cells (at 2×10^6, cells/ml), or cells chronically infected with RF-II strain HIV, followed by incubation at 37° C. for 45 minutes. To each well was then added 25 μl VB cells (about 5×10^4 cells), and the cells and virus isolates were cocultured for 18 hours in a humid 5% CO2 atmosphere.
# [3] = test system: HSV-1 KOS (PFA)'; experiment: Inhibition of viral yield, drug-resistant HSV-1 KOS(PFA)'; details: Human alphaherpesvirus 1, HeLa, read-out: ID90
# [4] = test system: HSV-2 333 (DHPG)'; experiment: Inhibition of viral yield, drug-resistant HSV-2 333(DHPG)'; details: Human alphaherpesvirus 2, HeLa, read-out: ID90
# Method: (§17) These compounds tested were the nucleoside analogs acyclovir (ACV), ganciclovir (DHPG), phosphonoformate (PFA), and phosphomethoxyethyladenine (PMEA). Inhibition of viral yield was determined, as above, by infecting Hela cells in the presence of wild type or drug-resistant strains of HSV-1 or HSV-2, and serial dilutions of a selected anti-viral compound, and infecting Vero cells with serial dilutions of the Hela cell lysate, as above.
# (§18) The KOS (HSV-1) and 333 (HSV-2) are wild type viruses; the KOS(PMEA)' and KOS(PFA)' are drug-resistant HSV-1 strains having a DNA polymerase mutation. The 333(DHPG) strain is a drug-resistantHSV-2 strain having a thymidine kinase mutation.
# (§19) The following strains of HSV-1 and HSV-2 virus were used: KOS, a wild type HSV-1 virus; KOS (PMEA) and KOS (PFA), both drug-resistant HSV-1 viruses having a DNA polymerase mutation; 333, a wild type HSV-2 HSV-2 virus, and 333 (DHPG), a drug-resistant HSV-2 virus having a thymidine kinase mutation.
# (§20) After growth at 37° C. for 24 hours in 2 ml of RPMI-1640 containing 2% FCS and penicillin and streptomycin (P/S), the cells were frozen at -70° C. until the time for titration. The cells were freeze/thawed 3 times to release virus from the cells, serially diluted 10 fold, and the serial dilutions were added to Vero cells in culture. After 2 hours incubation at 37° C. the virus was removed and 0.5 ml methycellulose (4K cps) in RPMI-1640 and 2% FCS+P/S was added. Two days later, the medium was removed. The cells were stained in 0.8% crystal violet in 50% ethanol. The plaques formed were counted and the titer was calculated from the fold of dilutions. From the drug dose response, the concentration of each drug required to effect a 90% inhibition of virus yield, the IC90 concentration was determined.
# [5] = test system: HSV-1 KOS(PMEA)'; experiment: Inhibition of viral yield, drug-resistant HSV-1 KOS(PMEA)'; details: Human alphaherpesvirus 1, HeLa, read-out: ID90
# Method: as §17, §18, §19, §20
# [6] = test system: HSV-1 KOS; experiment: Inhibition of viral yield, wild type HSV-1 KOS; details: Human alphaherpesvirus 1, HeLa, read-out: ID90
# Method: as §17, §18, §19, §20
# [7] = test system: HSV-2 333; experiment: Inhibition of viral yield, wild type HSV-2 333; details: Human alphaherpesvirus 2, HeLa, read-out: ID90
# Method: as §17, §18, §19, §20
# [8] = test system: HSV-1; experiment: Plaque reduction assay, HSV-1, Vero cells; format: cell-based, HSV-1 (Kos-1); details: Human alphaherpesvirus 1, Vero, plaque reduction, Vero cells
# Method: (§1) used in Table 3 were further tested for activity against HSV infection in
# (§2) a plaque reduction assay, as detailed in Example 6. Here Vero cells, after
# (§3) overnight incubation, were exposed to serial dilutions of KY compound,
# (§4) from 0.625-10 μg/ml, and HSV-1 or HSV-2 virus for two hours. After
# (§5) washing to remove drug and extracellular virus, the cells were further
# (§6) incubated for 2 days, then stained and counted for plaque formation.
# (§7) Percent inhibition was determined by dividing plaques produced by total
# (§8) number of plaques in infected, untreated controls. From the concentration
# (§9) effect curve of plaque inhibition (expressed as percent of control), the
# (§10) concentration of compound required to produce 50% plaque reduction,
# (§11) IC50, was determined. The IC50 values for infection by HSV-1 and
# (§12) HSV-2 infection is given in the right-hand columns in Table 3. With
# [9] = test system: RSV; experiment: Inhibition of RSV cytopathic effect in HEp2 cells; format: cell-based; details: human respiratory syncytial virus, HEp-2; HEp2 cells, cytopathic effect; read-out: ED50 RSV
# [10] = test system: HIV-RF-II; experiment: Inhibition of syncytia formation, HIV-RF-II; details: Human immunodeficiency virus 1, 18 h, read-out: HIV-RF-II ED100, complete inhibition of syncytia formation
# Method: as §13, §14, §15, §16
# [11] = test system: Influenza A (Taiwan); experiment: Inhibition of influenza A cytopathic effect (clumping) in MDCK cells; format: cell-based, Influenza A virus (A/Taiwan strain); details: Influenza A virus, 24 h, 50% reduction in percent clumped cells, read-out: ED50 Influenza A (Taiwan)
# Method: With virus infection, a cytopathic effect characterized by cell clumping is observed. For each compound tested, drug concentrations of 0.1, 1, 10, 25, and 100 μg/ml were added to cultured cells at the time of virus infection, as detailed in Examples 9 and 11. […] The inhibition of clumping was plotted as a function of drug concentration, to determine the dose effective to produce a 50% reduction in the percent clumped cells, measured with respect to control (no drug treatment).
# Assays to assess the antiviral activity of KY- and Y-compounds in tissue culture were performed in 96-well flat-bottom tissue culture plates (Falcon 307), using conditions similar to those used in the cytotoxicity assays described above. In these assays, compound was tested in quadruplicate by serially diluting the compound in 2% FCS-MEM using serial two-fold dilutions (0.05 ml/well). A 0.05 ml volume of the appropriate virus containing approximately 100 median tissue culture infectious doses (TCID50) was then added to all wells except those set aside as antiviral and tissue control wells. Next, approximately 3×10^3 HEp2 cells (0.1 ml) were added to each well. Control wells containing antiviral and no virus (antiviral control), containing virus but no antiviral (virus control), or containing medium without virus or antiviral (tissue control), were included in each test. The challenge virus was then back titrated. All assay plates were incubated at 35° C. for 5 to 7 days in a 5% CO2 incubator.
# The anti-influenza A activity of KY compounds was evaluated as described in Example 9, except that MDCK cells (kidney cell line) was used for infection in vitro by influenza virus (strain A/Taiwan).
# [12] = test system: HSV-2; experiment: Plaque reduction assay, HSV-2, Vero cells; format: cell-based, HSV-2 (333); details: Human alphaherpesvirus 2, Vero
# Method: as §1, §2, §3, §4, §5, §6, §7, §8, §9, §10, §11, §12
# [13] = test system: panel of human cell lines; experiment: Cytotoxicity in proliferating human cell lines; format: cell-based; details: 72 h; panel of human cell lines, 3 days; read-out: IC50 drug concentration (50% cell death)
# Method: In addition, a large number of representative aryl macrocyclic compounds (including those shown in Tables 1 and 2) were examined for toxicity in cell culture, using a panel of human cell lines, as detailed in Example 4. Briefly, the selected KY- or Y- compound was added to cell cultures at a final concentration of 5, 10, 25, 50, or 100 μg/ml. Three days later the cells were washed to remove drug, and stained with a vital stain, to determine the percentage of dead cells in each culture. The IC50 drug concentration, i.e., value concentration of drug which produced 50% cell death, was 50 μg/ml for KY-143, KY-151, and KY-163, and 100 μg/ml or greater for all of the other KY compounds tested. For KY-1, which has a molecular weight of 1404 daltons, a drug concentration of 100 μg/ml is equivalent to about […].
# A panel of human cell lines was used to check the toxicity of the drugs, including: KB (nasopharyngeal carcinoma), HeLaS3 (cervical epithelial carcinoma), PLC (hepatocarcinoma), HepG2 (human hepatocarcinoma) HepG2T14 (hepatocarcinoma transfected with HBV), WI38 (normal human lung fibroblast), BT549 (breast cancer), SW480 ([…]), and A549 (lung cancer).
# Three days later, the medium was removed and the cells were stained with Commassie Blue in 40% methanol and 7% acetic acid. The results are discussed in Section II above.
SMILES,"protection from CPE, in words [1]",EC100 [2] [µg/mL],IC90 [3] [µM],IC90 [4] [µM],IC90 [5] [µM],IC90 [6] [µM],IC90 [7] [µM],IC50 [8] [µg/mL],EC50 [9] [µg/mL],EC100 [10] [µg/mL],EC50 [11] [µg/mL],IC50 [12] [µg/mL],IC50 [13] [µg/mL]
O=S(=O)(O)c1cc2cc(S(=O)(=O)O)c3c(O)c2c(O)c1C(C(O)CO)c1c(S(=O)(=O)O)cc2cc(S(=O)(=O)O)c(c(O)c2c1O)C(C(O)CO)c1c(S(=O)(=O)O)cc2cc(S(=O)(=O)O)c(c(O)c2c1O)C(C(O)CO)c1c(S(=O)(=O)O)cc2cc(S(=O)(=O)O)c(c(O)c2c1O)C3C(O)CO (centres unmarked) [KY-48],low activity,250,–,–,–,–,–,–,–,–,–,–,–
"Nc1ncnc2c1ncn2CCOCP(=O)(O)O [PMEA, phosphomethoxyethyladenine]",–,–,> 1000,120,> 2000,100,155,–,–,–,–,–,–
COc1c2c(S(=O)(=O)O)cc3cc(S(=O)(=O)O)c(c(OC)c13)CN(C)Cc1c(S(=O)(=O)O)cc3cc(S(=O)(=O)O)c(c(OC)c3c1OC)CN(C)Cc1c(S(=O)(=O)O)cc3cc(S(=O)(=O)O)c(c(OC)c3c1OC)CN(C)Cc1c(S(=O)(=O)O)cc3cc(S(=O)(=O)O)c(c(OC)c3c1OC)CN(C)C2 [KY-395],low activity,–,–,–,–,–,–,–,–,–,–,–,–
O=S(O)c1cc2cc(S(=O)O)c3c(O)c2c(O)c1Cc1c(S(=O)O)cc2cc(S(=O)O)c(c(O)c2c1O)Cc1c(S(=O)O)cc2cc(S(=O)O)c(c(O)c2c1O)Cc1c(S(=O)O)cc2cc(S(=O)O)c(c(O)c2c1O)C3 [KY-123],–,16,–,–,–,–,–,1.5,1,16,31.3,1.5,–
O=S(=O)(O)c1c2c(O)c3c(O)c(c(S(=O)(=O)O)c(Br)c3c1Br)Cc1c(S(=O)(=O)O)c(Br)c3c(Br)c(S(=O)(=O)O)c(c(O)c3c1O)Cc1c(S(=O)(=O)O)c(Br)c3c(Br)c(S(=O)(=O)O)c(c(O)c3c1O)Cc1c(S(=O)(=O)O)c(Br)c3c(Br)c(S(=O)(=O)O)c(c(O)c3c1O)C2 [KY-194],–,63,–,–,–,–,–,1,0.5,125,7.9,1,–
O=S(=O)(O)c1c2c(O)c3c(O)c(c(S(=O)(=O)O)c(O)c3c1O)Cc1c(S(=O)(=O)O)c(O)c3c(O)c(S(=O)(=O)O)c(c(O)c3c1O)Cc1c(S(=O)(=O)O)c(O)c3c(O)c(S(=O)(=O)O)c(c(O)c3c1O)Cc1c(S(=O)(=O)O)c(O)c3c(O)c(S(=O)(=O)O)c(c(O)c3c1O)C2 [KY-143],low activity,250,–,–,–,–,–,> 10,–,125,–,> 10,50
CC(=O)C1c2c(S(=O)(=O)O)cc3cc(S(=O)(=O)O)c(c(O)c3c2O)C(C(C)=O)c2c(S(=O)(=O)O)cc3cc(S(=O)(=O)O)c(c(O)c3c2O)C(C(C)=O)c2c(S(=O)(=O)O)cc3cc(S(=O)(=O)O)c(c(O)c3c2O)C(C(C)=O)c2c(S(=O)(=O)O)cc3cc(S(=O)(=O)O)c1c(O)c3c2O (centres unmarked) [KY-110],low activity,63,–,–,–,–,–,> 10,4,–,> 250,> 10,–
